Results from US9127001B2, “Substituted 4,5,6,7-tetrahydro-1H-pyrazolo[4,3-c]pyridines, their use as medicament, and pharmaceutical preparations comprising them” (Sanofi, priority 2011, dated 2015).

The molecules below were run against Human TASK-1 channels (Homo sapiens (Human), UniProt O14649) (assay: Activity on the TASK-1 channel in Xenopus oocytes (two-microelectrode voltage clamp)). Conditions: not given.
Type: cell-based
Method: Human TASK-1 channels were expressed in Xenopus oocytes. For this purpose, oocytes were isolated from Xenopus laevis and defoliculated. Subsequently, TASK-1-encoding RNA synthesized in vitro was injected into oocytes. […] Data were acquired and analyzed using a TEC-10cx amplifier (NPI Electronic, Tamm, Germany) connected to an ITC-16 interface (Instrutech Corp., Long Island, USA) and Pulse software (HEKA Elektronik, Lambrecht, Germany). […] Oocytes were continuously superfused with ND96 buffer containing: NaCl 96 mM, KCl 2 mM, CaCl2 1.8 mM, MgCl2 1 mM, HEPES 5 mM (pH adjusted to 7.4 with NaOH). All experiments were performed at room temperature.
Test substances were consecutively added to the bath solution at rising concentrations. […] IC50 values were obtained by fitting the data to the general dose-response equation.

Human TASK-1 channels, sequence (O14649 whole entry): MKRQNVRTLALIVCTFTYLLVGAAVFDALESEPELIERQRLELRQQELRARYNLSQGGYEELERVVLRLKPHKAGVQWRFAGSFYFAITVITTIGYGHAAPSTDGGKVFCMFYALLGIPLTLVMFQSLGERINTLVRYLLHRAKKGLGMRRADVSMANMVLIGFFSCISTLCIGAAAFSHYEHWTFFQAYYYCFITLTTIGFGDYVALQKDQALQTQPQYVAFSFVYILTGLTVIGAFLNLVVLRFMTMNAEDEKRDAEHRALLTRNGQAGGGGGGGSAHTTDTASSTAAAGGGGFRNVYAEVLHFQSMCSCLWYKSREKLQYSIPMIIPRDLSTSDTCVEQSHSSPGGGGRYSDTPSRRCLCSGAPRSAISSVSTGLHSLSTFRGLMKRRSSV

| Compound | inhibition at 5 µM [%] |
| --- | --- |
| CC(C)(C)OCC(=O)N1CCc2c(c(-c3cccc(C#N)c3)nn2Cc2ccc(F)cc2F)C1 [Example 8d, 3-[5-(2-tert-Butoxy-acetyl)-1-(2,4-difluoro-benzyl)-4,5,6,7-tetrahydro-1H-pyrazolo[4,3-c]pyridin-3-yl]-benzonitrile] | 75 |
| COCC(=O)N1CCc2c(c(-c3cccc(C#N)c3)nn2Cc2ccc(F)cc2F)C1 [Example 8n, 3-[1-(2,4-Difluoro-benzyl)-5-(2-methoxy-acetyl)-4,5,6,7-tetrahydro-1H-pyrazolo[4,3-c]pyridin-3-yl]-benzonitrile] | 80 |

The next lines start with the values.

| inhibition at 5 µM [%] | Compound |
| --- | --- |
| 77 | CCOC(=O)N1CCc2c(c(-c3cccc(C#N)c3)nn2Cc2ccc(F)cc2F)C1 [Example 8y, 3-(3-Cyano-phenyl)-1-(2,4-difluoro-benzyl)-1,4,6,7-tetrahydro-pyrazolo[4,3-c]pyridine-5-carboxylic acid ethyl ester] |
| 76 | CC(C)NC(=O)N1CCc2c(c(-c3cccc(C#N)c3)nn2Cc2ccc(F)cc2F)C1 [Example 11a, 3-(3-Cyano-phenyl)-1-(2,4-difluoro-benzyl)-1,4,6,7-tetrahydro-pyrazolo[4,3-c]pyridine-5-carboxylic acid isopropylamide] |
| 91 | CCNC(=O)N1CCc2c(c(-c3cccc(C#N)c3)nn2Cc2ccc(F)cc2F)C1 [Example 11h, 3-(3-Cyano-phenyl)-1-(2,4-difluoro-benzyl)-1,4,6,7-tetrahydro-pyrazolo[4,3-c]pyridine-5-carboxylic acid ethylamide] |
| 74 | CN(C)C(=O)N1CCc2c(c(-c3cccc(C#N)c3)nn2Cc2ccc(F)cc2F)C1 [Example 12d, 3-(3-Cyano-phenyl)-1-(2,4-difluoro-benzyl)-1,4,6,7-tetrahydro-pyrazolo[4,3-c]pyridine-5-carboxylic acid dimethylamide] |
| 65 | CN(CCO)C(=O)N1CCc2c(c(-c3cccc(C#N)c3)nn2Cc2ccc(F)cc2F)C1 [Example 12e, 3-(3-Cyano-phenyl)-1-(2,4-difluoro-benzyl)-1,4,6,7-tetrahydro-pyrazolo[4,3-c]pyridine-5-carboxylic acid (2-hydroxy-ethyl)-methyl-amide] |

Same assay, conditions: human TASK-1 expressed in Xenopus oocytes, currents during pulses to 40 mV, room temperature

| Compound | IC50 [nM] |
| --- | --- |
| N#Cc1cccc(-c2nn(Cc3ccc(F)cc3F)c3c2CN(C(=O)C2CC2)CC3)c1 [Example 8c, 3-[5-Cyclopropanecarbonyl-1-(2,4-difluoro-benzyl)-4,5,6,7-tetrahydro-1H-pyrazolo[4,3-c]pyridin-3-yl]-benzonitrile] | 47 |
| CS(=O)(=O)c1cccc(C(=O)N2CCc3c(c(-c4cccc(C#N)c4)nn3Cc3ccc(F)cc3F)C2)c1 [Example 8e, 3-[1-(2,4-Difluoro-benzyl)-5-(3-methanesulfonyl-benzoyl)-4,5,6,7-tetrahydro-1H-pyrazolo[4,3-c]pyridin-3-yl]-benzonitrile] | 1620 |
| O=C(c1ccc(F)cc1)N1CCc2c(c(-c3ccc(F)cc3)nn2Cc2ccccc2)C1 [Example 8f, [1-Benzyl-3-(4-fluoro-phenyl)-1,4,6,7-tetrahydro-pyrazolo[4,3-c]pyridin-5-yl]-(4-fluoro-phenyl)-methanone] | 1280 |
| COc1ccc(C(=O)N2CCc3c(c(-c4ccc(F)cc4)nn3Cc3ccccc3)C2)cc1 [Example 8g, [1-Benzyl-3-(4-fluoro-phenyl)-1,4,6,7-tetrahydro-pyrazolo[4,3-c]pyridin-5-yl]-(4-methoxy-phenyl)-methanone] | 3260 |
| O=C(c1ccccc1)N1CCc2c(c(-c3ccc(F)cc3)nn2Cc2ccccc2)C1 [Example 8h, [1-Benzyl-3-(4-fluoro-phenyl)-1,4,6,7-tetrahydro-pyrazolo[4,3-c]pyridin-5-yl]-phenyl-methanone] | 2400 |
| N#Cc1cccc(-c2nn(Cc3ccc(F)cc3F)c3c2CN(C(=O)C2CCC2)CC3)c1 [Example 8i, 3-[5-Cyclobutane-carbonyl-1-(2,4-difluoro-benzyl)-4,5,6,7-tetrahydro-1H-pyrazolo[4,3-c]pyridin-3-yl]-benzonitrile] | 64 |
| N#Cc1cccc(-c2nn(Cc3ccc(F)cc3F)c3c2CN(C(=O)C2CCCC2)CC3)c1 [Example 8j, 3-[5-Cyclopentane-carbonyl-1-(2,4-difluoro-benzyl)-4,5,6,7-tetrahydro-1H-pyrazolo[4,3-c]pyridin-3-yl]-benzonitrile] | 722 |
| CS(=O)(=O)c1ccc(C(=O)N2CCc3c(c(-c4cccc(C#N)c4)nn3Cc3ccc(F)cc3F)C2)cc1 [Example 8k, 3-[1-(2,4-Difluoro-benzyl)-5-(4-methanesulfonyl-benzoyl)-4,5,6,7-tetrahydro-1H-pyrazolo[4,3-c]pyridin-3-yl]-benzonitrile] | 906 |
| N#Cc1cccc(-c2nn(Cc3ccc(F)cc3F)c3c2CN(C(=O)C2CCOCC2)CC3)c1 [Example 8l, 3-[1-(2,4-Difluoro-benzyl)-5-(tetra-hydro-pyran-4-carbonyl)-4,5,6,7-tetrahydro-1H-pyrazolo[4,3-c]pyridin-3-yl]-benzonitrile] | 585 |
| N#Cc1cccc(-c2nn(Cc3ccc(F)cc3F)c3c2CN(C(=O)C2CCOC2)CC3)c1 (stereo not shown) [Example 8m, 3-[1-(2,4-Difluoro-benzyl)-5-(tetrahydro-furan-3-carbonyl)-4,5,6,7-tetrahydro-1H-pyrazolo[4,3-c]pyridin-3-yl]-benzonitrile] | 890 |
| CC(C)(C)C(=O)N1CCc2c(c(-c3cccc(C#N)c3)nn2Cc2ccc(F)cc2F)C1 [Example 8o, 3-[1-(2,4-Difluoro-benzyl)-5-(2,2-dimethyl-propionyl)-4,5,6,7-tetrahydro-1H-pyrazolo[4,3-c]pyridin-3-yl]-benzonitrile] | 131 |
| CCC(=O)N1CCc2c(c(-c3cccc(C#N)c3)nn2Cc2ccc(F)cc2F)C1 [Example 8p, 3-[1-(2,4-Difluoro-benzyl)-5-propionyl-4,5,6,7-tetrahydro-1H-pyrazolo[4,3-c]pyridin-3-yl]-benzonitrile] | 530 |

Results, then the molecule that gave them:

| IC50 [nM] | Compound |
| --- | --- |
| 756 | C[C@H](O)C(=O)N1CCc2c(c(-c3cccc(C#N)c3)nn2Cc2ccc(F)cc2F)C1 [Example 8q, 3-[1-(2,4-Difluoro-benzyl)-5-((S)-2-hydroxy-propionyl)-4,5,6,7-tetrahydro-1H-pyrazolo[4,3-c]pyridin-3-yl]-benzonitrile] |
| 1140 | O=C(Cc1ccccc1)N1CCc2c(c(-c3ccc(F)cc3)nn2Cc2ccccc2)C1 [Example 8r, 1-[1-Benzyl-3-(4-fluoro-phenyl)-1,4,6,7-tetrahydro-pyrazolo[4,3-c]pyridin-5-yl]-2-phenyl-ethanone] |
| < 10000 | CCCC(=O)N1CCc2c(c(-c3cccc(C#N)c3)nn2Cc2ccc(F)cc2F)C1 [Example 8s, 3-[5-Butyryl-1-(2,4-difluoro-benzyl)-4,5,6,7-tetrahydro-1H-pyrazolo[4,3-c]pyridin-3-yl]-benzonitrile] |
| 246 | N#Cc1cccc(-c2nn(Cc3ccc(F)cc3F)c3c2CN(C(=O)c2ccccn2)CC3)c1 [Example 8t, 3-[1-(2,4-Difluoro-benzyl)-5-(pyridine-2-carbonyl)-4,5,6,7-tetrahydro-1H-pyrazolo[4,3-c]pyridin-3-yl]-benzonitrile] |
| 416 | N#Cc1cccc(-c2nn(Cc3ccc(F)cc3F)c3c2CN(C(=O)c2ccncc2F)CC3)c1 [Example 8u, 3-[1-(2,4-Difluoro-benzyl)-5-(3-fluoro-pyridine-4-carbonyl)-4,5,6,7-tetrahydro-1H-pyrazolo[4,3-c]pyridin-3-yl]-benzonitrile] |
| 864 | N#Cc1cccc(-c2nn(Cc3ccc(F)cc3F)c3c2CN(C(=O)c2ccncn2)CC3)c1 [Example 8v, 3-[1-(2,4-Difluoro-benzyl)-5-(pyrimidine-4-carbonyl)-4,5,6,7-tetrahydro-1H-pyrazolo[4,3-c]pyridin-3-yl]-benzonitrile] |
| 1150 | Cn1cncc1C(=O)N1CCc2c(c(-c3cccc(C#N)c3)nn2Cc2ccc(F)cc2F)C1 [Example 8w, 3-[1-(2,4-Difluoro-benzyl)-5-(3-methyl-3H-imidazole-4-carbonyl)-4,5,6,7-tetrahydro-1H-pyrazolo[4,3-c]pyridin-3-yl]-benzonitrile] |
| 1880 | Cn1ccc(C(=O)N2CCc3c(c(-c4cccc(C#N)c4)nn3Cc3ccc(F)cc3F)C2)n1 [Example 8x, 3-[1-(2,4-Difluoro-benzyl)-5-(1-methyl-1H-pyrazole-3-carbonyl)-4,5,6,7-tetrahydro-1H-pyrazolo[4,3-c]pyridin-3-yl]-benzonitrile] |
| 511 | CC(=O)N1Cc2c(-c3ccc(F)cc3)nn(Cc3ccc(F)cc3F)c2CC1C (stereo not shown) [Example 8z, 1-[1-(2,4-Difluoro-benzyl)-3-(4-fluoro-phenyl)-6-methyl-1,4,6,7-tetrahydro-pyrazolo[4,3-c]pyridin-5-yl]-ethanone] |
| 380 | CNC(=O)N1CCc2c(c(-c3cccc(C#N)c3)nn2Cc2ccc(F)cc2F)C1 [Example 12a, 3-(3-Cyano-phenyl)-1-(2,4-difluoro-benzyl)-1,4,6,7-tetrahydro-pyrazolo[4,3-c]pyridine-5-carboxylic acid methylamide] |
| 422 | CC(=O)N1CCc2c(c(-c3cc(C#N)ccn3)nn2Cc2ccc(F)cc2F)C1 [Example 13a, 2-[5-Acetyl-1-(2,4-difluoro-benzyl)-4,5,6,7-tetrahydro-1H-pyrazolo[4,3-c]pyridin-3-yl]-isonicotinonitrile] |
| 462 | CC(=O)N1CCc2c(c(-c3cccc(C#N)n3)nn2Cc2ccc(F)cc2F)C1 [Example 13b, 6-[5-Acetyl-1-(2,4-difluoro-benzyl)-4,5,6,7-tetrahydro-1H-pyrazolo[4,3-c]pyridin-3-yl]-pyridine-2-carbonitrile] |
